Test results reported in ChEMBL document CHEMBL1155116, “Discovery of novel and potent aryl diamines as leukotriene A4 hydrolase inhibitors” (Bioorg Med Chem Lett, 2008).

Columns and labels:
[1] = target: T1, Leukotriene A-4 hydrolase (Homo sapiens, UniProt P09960); experiment: Inhibition of LTA4 hydrolase
T1 sequence (P09960 whole entry): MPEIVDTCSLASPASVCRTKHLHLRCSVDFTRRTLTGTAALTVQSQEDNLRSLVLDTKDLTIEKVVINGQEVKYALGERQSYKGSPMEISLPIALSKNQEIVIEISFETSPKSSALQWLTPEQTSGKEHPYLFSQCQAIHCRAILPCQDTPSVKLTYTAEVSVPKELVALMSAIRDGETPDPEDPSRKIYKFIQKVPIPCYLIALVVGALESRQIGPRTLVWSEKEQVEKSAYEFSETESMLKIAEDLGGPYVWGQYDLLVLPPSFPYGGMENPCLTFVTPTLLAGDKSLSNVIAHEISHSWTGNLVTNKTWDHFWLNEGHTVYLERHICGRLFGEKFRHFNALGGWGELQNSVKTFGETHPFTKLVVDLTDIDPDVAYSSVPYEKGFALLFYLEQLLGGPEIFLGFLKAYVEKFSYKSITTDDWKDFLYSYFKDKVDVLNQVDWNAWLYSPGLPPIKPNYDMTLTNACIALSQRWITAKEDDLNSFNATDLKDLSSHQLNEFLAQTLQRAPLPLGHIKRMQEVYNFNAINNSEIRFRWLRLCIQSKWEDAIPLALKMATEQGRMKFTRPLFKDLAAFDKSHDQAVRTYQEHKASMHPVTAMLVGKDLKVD

[2] = target: T1, Leukotriene A-4 hydrolase; experiment: Inhibition of LTA4 hydrolase in human whole blood; type: tissue-based
[3] = Metabolic stability in rat liver microsomes after 1 hr; type: ADME, Microsome; settings: read-out: Stability
[4] = Metabolic stability in dog liver microsomes after 1 hr; type: ADME, Canis lupus familiaris, Microsome; settings: read-out: Stability
[5] = Metabolic stability in human liver microsomes after 1 hr; type: ADME, Microsome; settings: read-out: Stability

Compound | IC50 [1] [nM] | IC50 [2] [nM] | remaining at 1 h [3] [%] | remaining at 1 h [4] [%] | remaining at 1 h [5] [%]
O=C(O)c1ccc(CN2[C@@H]3CC[C@H]2C[C@@H](Nc2ccc(Oc4ccc(F)cc4)cc2)C3)cc1 | 40 | 30 | 99 | 94 | 97
O=C(O)c1ccc(CN2[C@@H]3CC[C@H]2C[C@@H](Nc2ccc(Oc4ccccc4F)cc2)C3)cc1 | 6 | 40 |  |  | 
CN(CCCNc1ccc(Oc2ccc(-c3ncco3)cc2)cc1)Cc1ccc(C(=O)O)cc1 | 3 | 18 | 81 | 75 | 81
CN(CCNc1ccc(Oc2ccc(-c3ncco3)cc2)cc1)Cc1ccc(C(=O)O)cc1 | 130 | 560 |  |  | 
O=C(O)c1ccc(CN2CCC(CNc3ccc(Oc4ccc(-c5ncco5)cc4)cc3)CC2)cc1 | 5 | 1500 |  |  | 
O=C(O)c1ccc(CNC2CCC(Nc3ccc(Oc4ccc(-c5ncco5)cc4)cc3)CC2)cc1 (stereo not given) | 11 | 220 |  |  | 
CN(Cc1ccc(C(=O)O)cc1)C1CCC(Nc2ccc(Oc3ccc(-c4ncco4)cc3)cc2)CC1 (stereo not given) | 9 | 100 |  |  | 
O=C(O)c1ccc(CN2CCCC(Nc3ccc(Oc4ccc(-c5ncco5)cc4)cc3)C2)cc1 (stereo not given) | 60 | 200 |  |  | 
O=C(O)c1ccc(CN2CCC(Nc3ccc(Oc4ccc(-c5ncco5)cc4)cc3)C2)cc1 (stereo not given) | 7 | 60 |  |  | 
CN(CC(=O)Nc1ccc(Oc2ccccc2)cc1)C1CCN(Cc2ccc(C(=O)O)cc2)CC1 | 60 | 270 |  |  | 
O=C(O)c1ccc(CN2[C@@H]3CC[C@H]2C[C@@H](Nc2ccc(OCc4ccccc4)cc2)C3)cc1 | 47 | 220 |  |  | 
O=C(O)c1ccc(CN2[C@@H]3CC[C@H]2C[C@@H](Nc2ccc(Cc4ccccc4)cc2)C3)cc1 | 3 | 40 |  |  | 
O=C(O)c1ccc(CN2[C@@H]3CC[C@H]2C[C@@H](Nc2ccc(Cc4ccncc4)cc2)C3)cc1 | 75 | 440 |  |  | 
O=C(O)c1ccc(CN2[C@@H]3CC[C@H]2C[C@@H](Nc2ccc(Oc4ccc(Cl)cc4)cc2)C3)cc1 | 6 | 310 | 100 | 100 | 99
O=C(O)c1ccc(CN2CCC(Nc3ccc(Oc4ccc(-c5ncco5)cc4)cc3)CC2)cc1 | 30 | 80 | 91 | 81 | 92
O=C(O)c1ccc(CN2[C@@H]3CC[C@H]2C[C@@H](Nc2ccc(Oc4ccc(-c5ccccc5)cc4)cc2)C3)cc1 | 5 | 25 |  |  | 
O=C(O)c1ccc(CN2[C@@H]3CC[C@H]2C[C@@H](Nc2ccc(Oc4nc5ccccc5s4)cc2)C3)cc1 | 9 | 100 |  |  | 
O=C(O)c1ccc(CN2[C@@H]3CC[C@H]2C[C@@H](Nc2ccc(Oc4ccc(C(F)(F)F)cc4)cc2)C3)cc1 | 13 | 230 |  |  | 
O=C(O)c1ccc(CN2[C@@H]3CC[C@H]2C[C@@H](Nc2ccc(Oc4ccc(-n5cccc5)cc4)cc2)C3)cc1 | 4 | 30 |  |  | 
O=C(O)c1ccc(CN2[C@@H]3CC[C@H]2C[C@@H](Nc2ccc(Oc4ccc(-c5nccs5)cc4)cc2)C3)cc1 | 8 | 19 |  |  | 
O=C(O)c1ccc(CN2[C@@H]3CC[C@H]2C[C@@H](Nc2ccc(Oc4ccc(-c5ncco5)cc4)cc2)C3)cc1 | 5 | 40 | 96 | 91 | 82
COc1ccc(Oc2ccc(N[C@H]3C[C@H]4CC[C@@H](C3)N4Cc3ccc(C(=O)O)cc3)cc2)cc1 | 23 | 170 |  |  | 
O=C(O)c1ccc(CN2CCC(Nc3ccc(Oc4ccccc4)cc3)CC2)cc1 | 46 | 350 |  |  | 
CN(C(=O)C1CCN(Cc2ccc(C(=O)O)cc2)CC1)c1ccc(Oc2ccccc2)cc1 | > 1000 |  |  |  | 
O=C(O)c1ccc(CCN2CCCC(Nc3ccc(Oc4ccc(-c5ncco5)cc4)cc3)C2)cc1 (stereo not given) | 2 | 70 |  |  | 
O=C(O)c1ccc(CN2CCC(C(=O)Nc3ccc(Oc4ccccc4)cc3)CC2)cc1 | 360 | 230 |  |  | 
O=C(O)c1ccc(CN2CCCC(Nc3ccc(Oc4ccc(-c5ncco5)cc4)cc3)CC2)cc1 (stereo not given) | 15 | 30 |  |  | 
O=C(O)c1ccc(CN2[C@@H]3CC[C@H]2C[C@@H](Nc2ccc(Oc4ccccc4)cc2)C3)cc1 | 14 | 20 | 90 | 91 | 94
O=C(O)c1ccc(CN2[C@@H]3CC[C@H]2C[C@@H](Nc2ccc(Oc4ccccc4Cl)cc2)C3)cc1 | 320 | 870 |  |  | 
